{"source": "patent US20230233736A1", "about": "“ANTIMICROBIAL FORMULATIONS COMPRISING SILICONE” (AMICOAT AS, priority 2020, published 2023)", "key": {"[1]": {"system": "Staphylococcus aureus FDA486", "assay": "Murine skin infection model, topical treatment", "type": "in vivo, mice", "conditions": "FIG. 1; cream or gel containing 2% (w/w), three treatments at three hourly intervals, compared to placebo", "description": "(§1) The skin of mice was infected with Staphylococcus aureus or Streptococcus pyogenes and subsequently given a total of three treatments at three hourly intervals. Three hours after the last treatment, skin biopsies were collected and the number of colony forming units (CFUs) present in the skin sample was determined. Results are shown in FIGS. 1 and 2, expressed as the number of colony forming units per mouse.\nIn experiment 1 (FIG. 1), compound 2 was applied to the murine skin as part of either a cream or a gel containing 2% (w/w) of compound 2. The same cream or gel without compound 2 was used as a negative control (placebo).\nas §1, with “3, 4” for “1”, “5” for “2,”\nIn experiment 1 (FIG. 3), compound 7 was applied to the murine skin as part of either a cream or a gel containing 2% (w/w) of compound 7. The same cream or gel without compound 7 was used as a negative control (placebo). Bactroban 2% cream was used as a positive control.\nIn experiment 3 (FIG. 5), compound 8 was applied in a 2% cream formulation on a Staphylococcus aureus FDA 486 infection in the murine skin infection model. A placebo cream and two known antibacterials, “Fucidin (fucidic acid) ointment 2%” and “Bactroban (mupericin) cream 2%” were used as controls."}, "[2]": {"system": "Trichophyton interdigitale", "assay": "MIC microbroth dilution (CLSI)", "type": "cell-based", "conditions": "G.R. Micro collection"}, "Aspergillus niger": {"system": "Aspergillus niger", "assay": "MIC microbroth dilution (CLSI)", "type": "cell-based", "conditions": "G.R. Micro collection"}, "[3]": {"system": "Methicillin resistant Staphylococcus aureus (MRSA) strain ATCC 33591", "conditions": "MRSA ATCC 33591"}, "Candida tropicalis": {"system": "Candida tropicalis", "assay": "MIC microbroth dilution (CLSI)", "type": "cell-based", "conditions": "ATCC750 - reference strain"}, "Bacteroides fragilis": {"system": "Bacteroides fragilis", "assay": "MIC microbroth dilution (CLSI)", "type": "cell-based", "design": "unit not given beside the values", "conditions": "ATCC 25285; SBB"}, "Acinetobacter baumanii": {"system": "Acinetobacter baumanii", "assay": "MIC microbroth dilution (CLSI)", "type": "cell-based", "design": "unit not given beside the values", "conditions": "antibiotic-susceptible clinical isolate", "source_text": "(§2) Cation-adjusted Mueller-Hinton broth (Oxoid Ltd., Basingstoke, UK and Trek Diagnostic Systems Ltd., East Grinstead, UK) (supplemented with 5% laked horse blood for Streptococcus spp., Corynebacterium jeikeium and Listeria monocytogenes) was used for aerobic bacteria, with an initial inoculum of approximately 10^5 colony-forming units (CFU)/m L."}, "[4]": {"system": "Staphylococcus hominis 58-69", "assay": "Growth inhibition zones around silicone prosthetic liner", "type": "cell-based", "source_text": "(§3) Bacterial Strains: • Staphylococcus epidermidis RP62A • Staphylococcus hominis 58-69\n(§4) The level of bacterial inhibition was examined by number of CFU and growth zone inhibition. All materials tested were washed with water after completion of the swell and dry procedure to ensure that the activity of the materials was due to internally absorbed AMC-109 only."}, "[5]": {"system": "Staphylococcus epidermidis RP62A", "assay": "Growth inhibition zones around silicone prosthetic liner", "type": "cell-based", "source_text": "as §3, §4"}, "[6]": {"system": "Trichophyton mentagrophytes", "assay": "MIC microbroth dilution (CLSI)", "type": "cell-based", "conditions": "G.R. Micro collection"}, "[7]": {"system": "Methicillin resistant Staphylococcus epidermidis (MRSE) strain ATCC 27626", "conditions": "MRSE ATCC 27626"}, "S. aureus (ATCC 8325)": {"system": "S. aureus (ATCC 8325)", "assay": "Modified AATCC 100 method, silicone membrane valves"}, "Streptococcus pyogenes": {"system": "Streptococcus pyogenes", "type": "cell-based", "conditions": "Macrolide (M-type) resistance clinical isolate", "source_text": "as §2"}, "Cryptococcus neoformans": {"system": "Cryptococcus neoformans", "assay": "MIC microbroth dilution (CLSI)", "type": "cell-based", "conditions": "G.R. Micro collection"}, "Shigella sp": {"system": "Shigella sp", "assay": "MIC microbroth dilution (CLSI)", "type": "cell-based", "conditions": "antibiotic-susceptible clinical isolate", "source_text": "as §2"}, "Salmonella sp": {"system": "Salmonella sp", "assay": "MIC microbroth dilution (CLSI)", "type": "cell-based", "source_text": "as §2"}, "Listeria monocytogenes": {"system": "Listeria monocytogenes", "assay": "MIC microbroth dilution (CLSI)", "type": "cell-based", "conditions": "antibiotic-susceptible clinical isolate", "source_text": "as §2"}, "[8]": {"system": "Staphylococcus saprophyticus", "assay": "MIC microbroth dilution (CLSI)", "type": "cell-based", "conditions": "antibiotic susceptible clinical isolate", "source_text": "as §2"}, "[9]": {"system": "Stenotrophomonas maltophilia", "assay": "MIC microbroth dilution (CLSI)", "type": "cell-based", "conditions": "antibiotic-susceptible clinical isolate", "source_text": "as §2"}, "Enterococcus gallinarum": {"system": "Enterococcus gallinarum", "assay": "MIC microbroth dilution (CLSI)", "type": "cell-based", "conditions": "vancomycin-resistant (VanC) clinical isolate", "source_text": "as §2"}, "Clostridium difficile": {"system": "Clostridium difficile", "assay": "MIC microbroth dilution (CLSI)", "type": "cell-based", "design": "unit not given beside the values", "conditions": "antibiotic-susceptible clinical isolate"}, "E. coli (5067-6002)": {"system": "E. coli (5067-6002)", "assay": "Modified AATCC 100 method, silicone membrane valves", "conditions": "low loading, original surface (A*)"}, "Microsporum canis": {"system": "Microsporum canis", "assay": "MIC microbroth dilution (CLSI)", "type": "cell-based", "conditions": "G.R. Micro collection"}, "S. epidermidis (RP62A)": {"system": "S. epidermidis (RP62A)", "assay": "Modified AATCC 100 method, silicone membrane valves", "conditions": "low loading, original surface (A*)"}, "P. aeruginosa (PAO1)": {"system": "P. aeruginosa (PAO1)", "assay": "Modified AATCC 100 method, silicone membrane valves", "conditions": "low loading, original surface (A*)"}, "Eggerthella lenta": {"system": "Eggerthella lenta", "assay": "MIC microbroth dilution (CLSI)", "type": "cell-based", "design": "unit not given beside the values", "conditions": "ATCC 43055; SBB"}}}
{"molecule": "CC(C)(C)c1cc(C(C)(C)C)c2[nH]c(C(C)(C)C)c(CC(NC(=O)C(N)CCCNC(=N)N)C(=O)NC(CCCNC(=N)N)C(=O)NCCc3ccccc3)c2c1", "note": "(stereo not shown) [Compound 2]", "values": [{"measurement": "number of colony forming units (CFU) in skin biopsy", "setting": "[1]", "value": "number of CFUs was reduced"}, {"measurement": "MIC", "setting": "[2]", "value": 8}, {"measurement": "MIC", "setting": "Aspergillus niger", "value": 8}, {"measurement": "MIC", "setting": "[3]", "value": "<3", "unit": "µM"}, {"measurement": "MIC", "setting": "Candida tropicalis", "value": 4}, {"measurement": "MIC", "setting": "Bacteroides fragilis", "value": 64}, {"measurement": "MIC", "setting": "Acinetobacter baumanii", "value": 16}, {"measurement": "minimum inhibitory concentration (MIC)", "setting": "S. aureus", "value": "2 to 4", "unit": "µg/mL"}, {"measurement": "growth inhibition zone", "setting": "[4]; 5 minutes swell time", "value": 4, "unit": "mm"}, {"measurement": "growth inhibition zone", "setting": "[4]; 15 minutes swell time", "value": 2, "unit": "mm"}, {"measurement": "growth inhibition zone", "setting": "[5]; 5 minutes swell time", "value": 3, "unit": "mm"}, {"measurement": "growth inhibition zone", "setting": "[5]; 15 minutes swell time", "value": 3, "unit": "mm"}, {"measurement": "minimum inhibitory concentration (MIC)", "setting": "S. epidermidis", "value": "2 to 4", "unit": "µg/mL"}, {"measurement": "MIC", "setting": "[6]", "value": 8}, {"measurement": "MIC", "setting": "[7]", "value": "<3", "unit": "µM"}, {"measurement": "CFU (samples containing AMC-109)", "setting": "S. aureus (ATCC 8325); High loading, swell concentration 8.3 mg/ml, original surface (A*)", "value": 0}, {"measurement": "CFU (samples containing AMC-109)", "setting": "S. aureus (ATCC 8325); Low loading, 1.7 mg/ml, surface created by slicing (B*)", "value": 0}, {"measurement": "CFU (samples containing AMC-109)", "setting": "S. aureus (ATCC 8325); Low with washing, 3.1 mg/ml, original surface (A*)", "value": 0}, {"measurement": "CFU (samples containing AMC-109)", "setting": "S. aureus (ATCC 8325); Low with washing, 3.1 mg/ml, surface created by slicing (B*)", "value": 0}, {"measurement": "MIC", "setting": "Streptococcus pyogenes", "value": 16}, {"measurement": "MIC", "setting": "Cryptococcus neoformans", "value": 4}, {"measurement": "MIC", "setting": "Shigella sp", "value": 8}, {"measurement": "MIC", "setting": "Salmonella sp; antibiotic-susceptible clinical isolate", "value": 8}, {"measurement": "MIC", "setting": "Salmonella sp; multi-drug resistant clinical isolate", "value": 8}, {"measurement": "MIC", "setting": "Listeria monocytogenes", "value": 16}, {"measurement": "MIC", "setting": "[8]", "value": 1}, {"measurement": "MIC", "setting": "[9]", "value": 8}, {"measurement": "MIC", "setting": "Enterococcus gallinarum", "value": 4}, {"measurement": "MIC", "setting": "Clostridium difficile", "value": 16}, {"measurement": "CFU (samples containing AMC-109)", "setting": "E. coli (5067-6002)", "value": 0}, {"measurement": "MIC", "setting": "Microsporum canis", "value": 8}, {"measurement": "CFU (samples containing AMC-109)", "setting": "S. epidermidis (RP62A)", "value": 0}, {"measurement": "CFU (samples containing AMC-109)", "setting": "P. aeruginosa (PAO1)", "value": 0}, {"measurement": "MIC", "setting": "Eggerthella lenta", "value": 32}]}
